Measured values as given in patent publication US20140242606A1, “PROBE FOR iFRET AND USE THEREOF” (KOREA RESEARCH INSTITUTE OF BIOSCIENCE AND BIOTECHNOLOGY, priority 2011, published 2014).

Key:
[1] = Quantum yield measurement; format: physicochemical; conditions: 0.1 M pH 10.0 phosphate buffer, standard 4-methyl-umbelliferone
Protocol: (§1) The quantum yield of each compound was measured in 0.1 M pH 10.0 phosphate buffer. 4-methyl-umbelliferone (ΦF 0.63) was used as a standard material, tryptophan (ΦF=0.12) was used as an FRET donor to calculate the quantum yield. FRET efficiency was calculated based on the results measured in PBS buffer at pH 7.4, and fluorescence was measured using an LS55 fluorescence spectrometer manufactured by Perkin Elmer.

BSA = BSA (Bos taurus, UniProt P02769); assay: Target specificity of probe XXVIII against BSA; format: binding; conditions: probe exposed to BSA
Excerpt: (§2) In order to examine target specificity of the probe having Chemical Formula XXVIII, the probe was exposed to BSA to examine whether iFRET signals were produced by binding of the probe to BSA. […] Therefore, it was confirmed that the biotin-conjugated iFRET fluorescent probe of the present invention selectively binds to streptavidin to produce iFRET signals.

streptavidin [2] = biological target: T1, streptavidin (Streptomyces avidinii, UniProt P22629); assay: FRET efficiency and Forster distance of biotin-conjugated probes; format: binding; conditions: between iFRET probe and streptavidin
Protocol: as §1

streptavidin [3] = biological target: T1, streptavidin; assay: iFRET detection of streptavidin with biotin-conjugated probes; format: binding; conditions: UV irradiation at 280 nm
Excerpt: The results of detecting streptavidin using Compounds of Chemical Formulae XXV to XXVIII as probes for iFRET are shown in FIGS. 23 to 26.
(§3) As in FIG. 23 showing the result of using the compound of Chemical Formula XXV as a probe for iFRET, the probe itself emitted low fluorescence (blue line) at 430 nm by UV irradiation at 280 nm; the protein (streptavidin) emitted fluorescence (green line) at 340 nm by UV irradiation at 280 nm.
(§4) As in FIG. 24 showing the result of using the compound of Chemical Formula XXVI as a fluorescent probe, the probe itself emitted low fluorescence (blue line) at 460 nm by UV irradiation at 280 nm; the protein (streptavidin) emitted fluorescence (green line) at 340 nm by UV irradiation at 280. […] Further, it was confirmed that the fluorescence increasing rate at the above emission wavelength was 600% or more, indicating production of effective iFRET signals.
Because the compound of Chemical Formula XXVII emitted fluorescence at the longer wavelength than the known iFRET probe, signal-to-noise ratio is […] during real-time cell imaging, thereby providing more clear images.
as §2

[4] = tested on: HSP90 (heat shock protein 90) protein; assay: iFRET detection of HSP90 with probe XXIV; format: binding
Protocol: Compound XXIV was dissolved in DMSO, and then diluted with distilled water to a final concentration of 2 μM. When Compound XXIV or the protein was present alone, no fluorescence signals were newly observed around 450 nm.
(§5) The right graph of FIG. 18 is the result of reexamining iFRET signals using Compound XXIV, purified HSP90 protein, and a control group BSA (bovine serum albumin). 2 μM Compound XXIV was used, and HSP90 protein and BSA protein were used at the final concentration of 200 nM. At this time, the used buffer was phosphate buffered saline (PBS; pH 7.4). As shown in the figure, iFRET signals result from compound XXIV and HSP90 protein which are selectively binding.
FIG. 19 is a graph showing iFRET signals detected by using HSP90 protein and Chemical Formula XXIV Selectively binding thereto.
(§6) As a control group, BSA (bovine serum albumin) was used.

[5] = biological target: BSA (bovine serum albumin) (Bos taurus, UniProt P02769); assay: iFRET control of probe XXIV with BSA; format: binding; conditions: probe (2 μM) with BSA (200 nM), PBS pH 7.4
Protocol: as §5, §6

HSP90 protein = assay: Dissociation constant of iFRET probe and HSP90 (double reciprocal plot of fluorescence); format: binding; conditions: probe concentration fixed, HSP90 at various concentrations
Protocol: FIG. 21 is the result of binding degree of the synthesized Chemical Formula XXIV and HSP90 protein. The core structure used in the synthesis of Chemical Formula XXIV is PU-H64 (J. Med. Chem. 2006, 49, 4953-4960), and this structure binds to HSP90. The iFRET probe used in this experiment is a structure in which a fluorescent nucleus is introduced into PU-H64. In order to examine the actual binding degree of this probe and HSP90 protein, analysis of enzyme kinetics was performed to confirm that its dissociation constant is approximately 160 nM. The concentration of Chemical Formula XXIV as the iFRET probe was fixed and HSP90 was reacted at various concentrations to measure emitted fluorescence intensity. Based on this measured values, the dissociation constant was calculated. The reciprocal of the HSP90 concentration and the reciprocal of the fluorescence value were plotted to calculate the dissociation constant.

[6] = Fluorescence of the iFRET probe alone; format: physicochemical
Excerpt: After excitation at 260, 280, 340, and 360 nm, the emitted fluorescence spectra were examined. […]
as §3
as §4, with “signals. […]” for “signals.”

Chain of BSA (bovine serum albumin) (P02769 25-607): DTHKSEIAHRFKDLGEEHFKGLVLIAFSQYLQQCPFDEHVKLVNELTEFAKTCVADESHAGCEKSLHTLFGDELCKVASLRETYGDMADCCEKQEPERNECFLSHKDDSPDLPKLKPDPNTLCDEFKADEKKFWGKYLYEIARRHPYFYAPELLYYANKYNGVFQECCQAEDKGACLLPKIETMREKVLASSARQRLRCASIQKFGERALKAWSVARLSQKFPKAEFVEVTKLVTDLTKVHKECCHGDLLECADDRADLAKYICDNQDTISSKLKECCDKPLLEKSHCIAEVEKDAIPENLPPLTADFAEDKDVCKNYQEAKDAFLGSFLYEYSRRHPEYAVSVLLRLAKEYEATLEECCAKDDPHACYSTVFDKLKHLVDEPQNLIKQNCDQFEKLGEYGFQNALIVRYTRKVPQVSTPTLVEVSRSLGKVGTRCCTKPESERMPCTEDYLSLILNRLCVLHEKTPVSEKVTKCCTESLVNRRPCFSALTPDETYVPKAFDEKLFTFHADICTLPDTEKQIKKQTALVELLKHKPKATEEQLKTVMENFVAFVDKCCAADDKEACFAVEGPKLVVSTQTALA
Chain of BSA (P02769 25-607): as above

| iFRET signals [5] | Kd (HSP90 protein) | fluorescence emission wavelength of probe alone ([6]; excitation / UV irradiation at 280 nm) | fluorescence intensity on excitation at 340 nm compared to excitation at 280 nm ([6]; probe alone) | Structure (SMILES) | Quantum yield (ΦF) [1] | iFRET signals (BSA) | R0 (Fōrster distance) (streptavidin [2]) | fluorescence / iFRET signal of mixture of probe and streptavidin (streptavidin [3]) | iFRET signal around 450 nm ([4]; 2 μM probe with purified HSP90, DMSO diluted with distilled water) | fluorescence at 430 nm of mixture ([4]; mixture of probe and HSP90, excitation at 280 nm, versus HSP90 or probe alone) |
| --- | --- | --- | --- | --- | --- | --- | --- | --- | --- | --- |
| – | – | – | – | CN(C)c1ccc2cc(/C=C/C(=O)NCCNC(=O)CCCC[C@@H]3SC[C@@H]4NC(=O)N[C@@H]43)c(=O)oc2c1 [Chemical Formula XXVIII, N-((E)-7-dimethylaminocoumarin-3-acryl)-N′-(biotinyl)ethylenediamide] | 0.55 | no signals were observed | 2.102 nm | iFRET signals produced | – | – |
| no iFRET signals | ~160 nM | approximately 430 nm | approximately 2 fold | Nc1ncnc2c1nc(Sc1cc3c(cc1Br)OCO3)n2CCC(=O)NCCNc1cccc2ccccc12 [Chemical Formula XXIV, 3-(6-amino-8-(6-bromobenzo[1,3]-dioxole-5-ylthio)-9S-purin-9-yl)-N-(2-(naphthalene-1-ylamino)ethyl)propaneamide] | – | – | – | – | new fluorescence signals were observed | increased fluorescence |
